Series [1] relates to C. albicans cells. The experiment in a line: small molecule screen for inhibitors of the Spider media-induced budded-to-hyphal transition. The format is cell-based, Candida albicans. How it is done:
For the screen, C. albicans cells were grown in YNB media that inhibits hyphal growth and then transferred to 384-well optical plates containing Spider media to induce the budded-to-hyphal transition and hyphal elongation. […] In FIG. 3, the indicated small molecules were added at the indicated concentrations at time 0 and growth was allowed to continue for 4 h at 37° C. before the cells were fixed and observed microscopically. YNB media is well known in the art and contains yeast nitrogen base (DIFCO Labs.), glucose (US Biological) and d-H2O. Spyder media is well known in the art and contains nutrient broth (DIFCO Labs.), mannitol (Sigma-Aldrich), K2HPO4 (Sigma-Aldrich) and d-H2O.
Next, small molecules were assayed for their ability to inhibit the Spider media-induced hyphal growth.
The basic microscopic screen was described in detail above. To identify inhibitors, C. albicans cells are initially grown in YNB media that inhibits hyphal growth and then transferred to 384-well optical assay plates containing Spider media to induce the transition to hyphae. Individual molecules from the Chembridge small molecule library (Kao, R. Y. T., et al., 2002, Proc. Natl. Acad. Sci. USA 99: 10066-10071), or other library, are transferred from a 384-well plate containing stock solutions to individual wells of the assay plates. For convenience, positive and negative controls may be located at each corner of the plate. These plates are incubated at 37° C. for 4 h to allow for hyphal elongation before the cells are fixed and screened. Screening occurs on an inverted Nikon microscope with a computer driven XY stage with DIC/Hoffman optics, digital SPOT® camera and automatic shutter. Pictures are automatically taken of each well with the plate number and well position embedded in the picture through a script written for OpenLab® image analysis software from Improvision (INVIVO, from QED Imaging, Inc.). Inhibitory molecules are identified by rapidly screening a picture of each well for the presence of budded cells and absence of hyphal cells. Each inhibitor is retested at both 4 h and 16 h to eliminate those compounds that are cytotoxic, delay hyphal formation, or delay elongation through a growth defect. Molecules that give consistent inhibition of the budded-to-hyphal transition with continued budded growth with no hyphae out to 16 are further characterized as described below. A dose-response for each molecule is established through serial dilutions in order to determine the threshold concentration of each molecule. Typical threshold concentrations range from about 1 to about 100 micromolar (μM). In addition, the reversibility of each molecule is tested by washing out the molecule and adding fresh Spider media; cells that resume hyphal growth indicate that the molecule is reversible in action and that the molecule's initial effects were not due to cytotoxicity.

The conditions of series [2]: Scott, V. R., et al., 1988; cited from earlier work.

For `C/C1=C/C(=O)O[C@@H]2C[C@@H](CC[C@H](C)/C=C\C=C\CC1)O[C@@](O)([C@@H]1CSC(=O)N1)C2` [Lat A, latrunculin-A], in series [1], the “dose-dependence of the inhibition” value is recorded as “dose-dependent” and the “reversibility of the inhibition” value is on record as “reversible”. Besides, in series [1] (0.1 μM, 4 h at 37° C.), the “inhibition of the budded-to-hyphal transition and hyphal growth” value is given as “effect was lost”. The “inhibition of the budded-to-hyphal transition and hyphal growth” value in series [1] (1.6 μM added at time 0, 4 h at 37° C.) is “inhibited the budded-to-hyphal transition and hyphal growth”.

With `C/C1=C\[C@H](C)C[C@H](C)OC(=O)C[C@H](c2ccc(O)cc2)NC(=O)[C@@H](Cc2c(Br)[nH]c3ccccc23)N(C)C(=O)[C@H](C)NC(=O)[C@@H](C)C1` [jasplakinolide], in series [1] (4 h at 37° C. (FIG. 3)), the “cell phenotype in the screen” value is listed as “apparent cell-cycle arrest as small budded cells” and the “cytotoxicity in the screen” value is “dose-dependent cytotoxic molecule”. In addition, the anti-fungal activity entry in series [2] is reported as “previously shown to have anti-fungal activity”.

The values are drawn from patent US7763660B2, “Inhibitors of Candida albicans” (The University of Vermont and State Agricultural College, priority 2003, dated 2010).
